Laboratory results published in patent US4389398A, “Amino glycoside antibiotics having antiprotozoal and anthelmintic activity” (priority 1978, dated 1983).
Converted amounts (≈) assume the structure as drawn. Read-outs that look alike come from different tables or passages of the source.

Columns and labels:
[1] = test system: Aerobacter aerogenes; experiment: In vitro minimal inhibitory concentration, Aerobacter aerogenes; type: cell-based; conditions: pH 7.4
Method: (§1) In Table III below is set forth the in vitro minimal inhibitory concentration of gentamicin B, gentamicin B1 and gentamicin X all in the free base form against a variety of gram positive and gram negative microorganisms. The experiments were carried out in a yeast beef broth medium at pH 7.4.

[2] = test system: Bacillus subtilis; experiment: In vitro minimal inhibitory concentration, Bacillus subtilis; type: cell-based; conditions: pH 7.4
Method: as §1

[3] = test system: Escherichia coli; experiment: In vitro minimal inhibitory concentration, Escherichia coli; type: cell-based; conditions: pH 7.4
Method: as §1

[4] = test system: Klebsiella pneumoniae; experiment: In vitro minimal inhibitory concentration, Klebsiella pneumoniae; type: cell-based; conditions: pH 7.4
Method: as §1

[5] = test system: Pseudomonas aeruginosa; experiment: In vitro minimal inhibitory concentration, Pseudomonas aeruginosa; type: cell-based; conditions: pH 7.4
Method: as §1

[6] = test system: Sarcina lutea; experiment: In vitro minimal inhibitory concentration, Sarcina lutea; type: cell-based; conditions: pH 7.4
Method: as §1

[7] = test system: Staphylococcus aureus; experiment: In vitro minimal inhibitory concentration, Staphylococcus aureus; type: cell-based; conditions: pH 7.4
Method: as §1

[8] = test system: Streptococcus pyogenes; experiment: In vitro minimal inhibitory concentration, Streptococcus pyogenes; type: cell-based; conditions: pH 7.4
Method: as §1

[9] = test system: Shigella sp. M324; experiment: In vitro minimal inhibitory concentration, Shigella sp. M324; type: cell-based; conditions: free base; yeast beef broth medium, pH 7.4
Method: as §1

[10] = test system: Staphylococcus aureus Gray; experiment: Protective activity in mice, Staphylococcus aureus Gray infection; type: in vivo; conditions: sc, subcutaneous one hour after infection, survivors at 48 hours, read-out: PD50
Method: (§2) Infected non-treated controls die in about 18 to 24 hours. Generally 5-7 dose levels are administered to mice weighing about 20 grams in groups of 7-10.

[11] = test system: Staphylococcus aureus W; experiment: Protective activity in mice, Staphylococcus aureus W infection; type: in vivo; conditions: sc, subcutaneous one hour after infection, survivors at 48 hours, read-out: PD50
Method: as §2

[12] = test system: Staphylococcus aureus Smith; experiment: Protective activity in mice, Staphylococcus aureus Smith infection; type: in vivo; conditions: sc, subcutaneous one hour after infection, survivors at 48 hours, read-out: PD50
Method: as §2

[13] = test system: Streptococcus pyogenes C; experiment: Protective activity in mice, Streptococcus pyogenes C infection; type: in vivo; conditions: sc, subcutaneous one hour after infection, survivors at 48 hours, read-out: PD50
Method: as §2

[14] = test system: Salmonella paratyphi B; experiment: Protective activity in mice, Salmonella paratyphi B infection; type: in vivo; conditions: Salmonella enterica, sc, subcutaneous one hour after infection, survivors at 48 hours, read-out: PD50
Method: as §2

[15] = test system: Pseudomonas aeruginosa SC; experiment: Protective activity in mice, Pseudomonas aeruginosa SC infection; type: in vivo; conditions: subcutaneous one hour after infection, survivors at 48 hours, read-out: PD50
Method: as §2

[16] = in vivo; conditions: mouse
Method: The acute toxicity of gentamicin B, gentamicin B1 and gentamicin X is determined in male CF-1 (Carworth Farms) mice weighing about 20 grams each.

[17] = test system: Trichomonas vaginalis; experiment: In vitro activity against Trichomonas vaginalis; type: cell-based; conditions: Trichomonas vaginalis; for MIC: read-out: Minimal 99% Suppression Level; for MBC: read-out: Minimal Cidal Level
Text: In Table VI below is set forth the in vitro activity of the compounds of this invention against T. vaginalis. The test procedure used was substantially as described by R. J. Schnitzer on pages 289-331 in Experimental Chemotherapy, Volume 1, Academic Press, New York (1963).

[18] = test system: Syphacia obvelata; experiment: Anthelmintic activity in vivo against Syphacia obvelata in mice; parameters: species or system male Millerton mice
[19] = Chronic toxicity (ataxia) in cats after daily subcutaneous dosing; type: in vivo
Text: There appears to be a causal relationship between high doses of amino-glycoside type antibiotics given over an extended period of time and vestibular damage wherein one of the early manifestations is ataxia. […] Moreover, they may be used at such dosages for a time interval substantially beyond that normally required to eliminate infection without causing ataxia; and with minimal, if any, toxic manifestations. Thus, gentamicin B and gentamicin B1 represent a substantial improvement over antibiotics of this class (amino-glycoside) that are currently in use.

[20] = test system: Entamoeba histolytica; experiment: Stated activity against Entamoeba histolytica
[21] = test system: Histomonas meleagridis; experiment: Stated activity against Histomonas meleagridis
[22] = test system: Syphacia obvelata; experiment: Stated anthelmintic activity against pinworms such as Syphacia obvelata
[23] = test system: protozoa; conditions: cited from earlier work
[24] = test system: helminths; conditions: cited from earlier work
[25] = free base, yeast beef broth medium, read-out: MIC

CNC1C(O)C(OC2C(N)CC(N)C(OC3OC(CN)C(O)C(O)C3O)C2O)OCC1(C)O (centres unmarked) [Gentamicin B]
MIC [1]: 0.08 µg/mL (≈ 0.166 µM)
MIC [2]: 0.8 µg/mL (≈ 1.66 µM)
MIC [3]: 0.03 to 0.3 µg/mL (≈ 0.0622 to 0.622 µM)
MIC [4]: 3 µg/mL (≈ 6.22 µM)
MIC [5]: 0.03 to 0.08 µg/mL (≈ 0.0622 to 0.166 µM)
MIC [6]: 0.3 µg/mL (≈ 0.622 µM)
MIC [7]: 0.3 to 3 µg/mL (≈ 0.622 to 6.22 µM)
MIC [8]: 3 µg/mL (≈ 6.22 µM)
MIC [9]: 5 µg/mL (≈ 10.4 µM)
ED50 [10]: 20 mg/kg
ED50 [11]: 50 mg/kg
ED50 [12]: 5 mg/kg
ED50 [13]: 15 mg/kg
ED50 [14]: 5 mg/kg
ED50 [15]: 2 mg/kg
LD50 ([16]; ip): 1750 mg/kg
LD50 ([16]; iv): 228 mg/kg
LD50 ([16]; po): > 250 mg/kg
LD50 ([16]; sc): > 1500 mg/kg
MIC ([17]; 24 h): 25 µg/mL (≈ 51.8 µM)
MBC ([17]; 24 h): > 250 µg/mL
MIC ([17]; 48 h): 25 µg/mL (≈ 51.8 µM)
MBC ([17]; 48 h): 25 µg/mL (≈ 51.8 µM)
% Infected ([18]; 8 mg/kg/day, 0.008% in diet): 67%
Mean Worm Burden ([18]; 8 mg/kg/day, 0.008% in diet): 29.5
% Infected ([18]; 39 mg/kg/day, 0.02% in diet): 0%
Mean Worm Burden ([18]; 39 mg/kg/day, 0.02% in diet): 0
% Infected ([18]; 100 mg/kg/day, 0.0625% in diet): 0%
Mean Worm Burden ([18]; 100 mg/kg/day, 0.0625% in diet): 0
% Infected ([18]; 259 mg/kg/day, 0.25% in diet): 0%
Mean Worm Burden ([18]; 259 mg/kg/day, 0.25% in diet): 0
minimal effective dose ([18]; Syphacia obvelata, read-out: minimum dosage with anthelmintic activity): 39 mg/kg/day
anthelmintic activity (in words) ([18]; male Millerton mice): exhibit anthelmintic activity
ataxic potential (in words) ([19]; in vivo): low ataxic potential
period of administration to cause impairment of the "righting reflex" and ataxia (in words) ([19]; in vivo): required substantially longer periods of administration at high doses
antiprotozoal activity (in words) [20]: to a lesser extent
antiprotozoal activity (in words) [21]: to a lesser extent
anthelmintic activity (in words) [22]: effective

CNC1C(O)C(OC2C(N)CC(N)C(OC3OC(C(C)N)C(O)C(O)C3O)C2O)OCC1(C)O (centres unmarked) [Gentamicin B1]
MIC [1, 25]: 0.08 µg/mL (≈ 0.161 µM)
MIC [2, 25]: 3 µg/mL (≈ 6.04 µM)
MIC [3, 25]: 0.08 to 0.3 µg/mL (≈ 0.161 to 0.604 µM)
MIC [4, 25]: 3 µg/mL (≈ 6.04 µM)
MIC [5, 25]: 0.08 µg/mL (≈ 0.161 µM)
MIC [6, 25]: 0.3 µg/mL (≈ 0.604 µM)
MIC [7, 25]: 0.3 to 3 µg/mL (≈ 0.604 to 6.04 µM)
MIC [8, 25]: 3 µg/mL (≈ 6.04 µM)
MIC [9]: 5 µg/mL (≈ 10.1 µM)
ED50 [10]: 30 mg/kg
ED50 [11]: 50 mg/kg
ED50 [12]: 2.5 mg/kg
ED50 [13]: 18 mg/kg
ED50 [14]: 4 mg/kg
ED50 [15]: 2 mg/kg
LD50 ([16]; in vivo, ip): 1600 mg/kg
LD50 ([16]; in vivo, iv): 230 mg/kg
LD50 ([16]; in vivo, po): > 250 mg/kg
LD50 ([16]; in vivo, sc): > 1500 mg/kg
MIC ([17]; 24 hours): 25 µg/mL (≈ 50.3 µM)
MBC ([17]; 24 hours): > 250 µg/mL
MIC ([17]; 48 hours): 10 to 25 µg/mL (≈ 20.1 to 50.3 µM)
MBC ([17]; 48 hours): 25 µg/mL (≈ 50.3 µM)
Average No. Days to become ataxic ([19]; 40 mg/kg/day subcutaneous): 108.0 days
Average No. Days to become ataxic ([19]; 60 mg/kg/day subcutaneous): 69.0 days
Average No. Days to become ataxic ([19]; 240 mg/kg/day subcutaneous): 21.0 days
period of administration to cause impairment of the "righting reflex" and ataxia (in words) ([19]; high doses): required substantially longer periods of administration at high doses
ataxic potential (in words) ([19]; see Table VIII): low ataxic potential
antiprotozoal activity (in words) [20]: to a lesser extent
antiprotozoal activity (in words) [21]: to a lesser extent
anthelmintic activity (in words) [22]: effective

NC[C@@H]1O[C@H](O[C@H]2[C@@H](O)[C@H](O[C@@H]3[C@@H](O)[C@H](N)C[C@H](N)[C@H]3O[C@H]3O[C@H](CO)[C@@H](O)[C@H](O)[C@H]3N)O[C@@H]2CO)[C@H](N)[C@@H](O)[C@@H]1O [paromomycin]
antiprotozoal activity (in words) [23]: known to exhibit antiprotozoal activity to any substantial degree
anthelmintic activity (in words) [24]: exhibit anthelmintic activity in reasonably useful dosage ranges
